Melting point data for 50 compounds are collected here from patent publication US6784167B2, “17-beta-hydroxysteroid dehydrogenase-II inhibitors” (Bayer Pharmaceuticals Corporation, priority 2000, dated 2004).

`CN1C(=O)CC(c2ccccc2)C1C(O)c1cc2ccccc2o1` (centres unmarked) [Example 112] displayed a melting point of 120 to 122 °C.

In turn, `CN1C(=O)C[C@H](c2ccccc2)[C@@H]1[C@H](O)CCc1ccc(F)cc1` (relative stereo) [Example 16, (±)-5-[(1R*)-3-(4-fluorophenyl)-1-hydroxypropyl](4R*,5R*)-1-methyl-4-phenylpyrrolidin-2-one] had a melting point of 122 to 124 °C.

For `COc1cc(-c2ccc(C(O)C3C(c4ccccc4)CC(=O)N3C)s2)cc(OC)c1OC` (centres unmarked) [Example 49], the melting point was 190 °C (dec.).

The compound `CN1C(=O)CC(c2ccccc2)C1C(O)c1ccc(-c2ccc3ccccc3n2)s1` (centres unmarked) [Example 40] registered a melting point of 225 to 228 °C.

`CN1C(=O)C[C@H](c2ccccc2)[C@@H]1[C@H](O)c1ccc(-c2cccnc2)s1` (relative stereo) [Example 3b, (4R,5R)-5-{(1S)-hydroxy[5-(3-pyridinyl)-2-thienyl]methyl}-1-methyl-4-phenyl-2-pyrrolidinone] registered a melting point of 232 °C.

In turn, `CN1C(=O)CC(c2ccccc2)C1C(O)c1cc(-c2ccccc2)cs1` (centres unmarked) [Example 42] returned a melting point of 165 °C.

Turning to `CN1C(=O)CC(c2ccccc2)C1C(O)c1ccc(C=Cc2ccc(F)cc2)s1` (centres unmarked) [Example 56], the melting point is 194 to 195 °C (dec.).

`CN1C(=O)CC(c2ccccc2)C1C(O)C#Cc1cccc(O)c1` (centres unmarked) [Example 132] returned a melting point of 210 to 211 °C.

As to `CN1C(=O)CC(c2ccccc2)C1C(O)c1ccc(C(=O)c2ccccc2)s1` (centres unmarked) [Example 63], the melting point was 202 °C (dec.).

Turning to `CN1C(=O)CC(c2ccccc2)C1C(O)c1cc2ccccc2s1` (centres unmarked) [Example 41], the melting point was 195 °C (dec.).

As for `CN1C(=O)CC(c2ccccc2)C1C(O)c1ccc(-c2ccc(F)cc2)cc1` (centres unmarked) [Example 111], the melting point turned out to be 117 °C.

Consider `CN1C(=O)CC(c2ccccc2)C1C(O)c1cccc(-c2ccc(O)cc2)c1` (centres unmarked) [Example 110], for which the melting point turned out to be 230 °C.

`CN1C(=O)CC(c2ccccc2)C1C(O)c1cccc(C(F)(F)F)c1` (centres unmarked) [Example 96] had a melting point of 155 to 158 °C.

For `Cc1ccc(-c2ccc(C(O)C3C(c4ccccc4)CC(=O)N3C)s2)nc1` (centres unmarked) [Example 27], the melting point was 173 °C.

On to `CN1C(=O)CC(c2ccccc2)C1C(O)c1ccc2c(c1)OCO2` (centres unmarked) [Example 108], for which the melting point was found to be 211 °C.

`CC(=O)O[C@H](c1ccc(-c2ccc(F)cc2)s1)[C@H]1[C@@H](c2ccccc2)CC(=O)N1C` (relative stereo) [Example 13, (±)-(4R*,5R*)5-{(1S*)[5-(4-fluorophenyl)(2-thienyl)]acetyloxymethyl}-1-methyl4-phenylpyrrolidin-2-one] registered a melting point of 75 °C.

Take `CN1C(=O)C[C@H](c2ccccc2)[C@@H]1[C@H](O)c1ccc(C(=O)Nc2ccccc2)s1` (relative stereo) [Example 4, (±)-5-[(1S*)(5-(N-phenylcarbamoyl)(2-thienyl))hydroxymethyl](4R*,5R*)-1-methyl-4-phenylpyrrolidin-2-one]: the melting point is 223 to 227 °C.

`CN1C(=O)CC(c2ccccc2)C1C(O)c1cccc(-c2cccc(N)c2)c1` (centres unmarked) [Example 105] gave a melting point of 130 °C.

Regarding `CN1C(=O)CC(c2ccccc2)C1C(O)c1ccc(-c2cccc(C(=O)O)c2)s1` (centres unmarked) [Example 33], the melting point was found to be 231 °C.

In turn, `COc1cccc(-c2cccc(C(O)C3C(c4ccccc4)CC(=O)N3C)c2)c1` (centres unmarked) [Example 107] had a melting point of 183 °C.

`CN1C(=O)C[C@H](c2ccccc2)[C@@H]1[C@H](O)/C=C/c1ccc(F)cc1` (relative stereo) [Example 15, (±)-(4R*,5R*)-5-[(2E)(1R*)-3-(4-fluorophenyl)-1-hydroxyprop-2-enyl]-1-methyl-4-phenylpyrrolidin-2-one] had a melting point of 189 to 191 °C.

Regarding `CN1C(=O)CC(c2ccccc2)C1C(O)c1ccc(Sc2ccc(Cl)cc2)s1` (centres unmarked) [Example 60], the melting point lay in the range of 174 to 176 °C.

For the compound `CN1C(=O)CC(c2ccc(N)cc2)C1C(O)c1ccc(-c2ccc(F)cc2)s1` (centres unmarked) [Example 86], the melting point is 209 °C.

On to `CC(=O)Nc1cccc(-c2ccc(C(O)C3C(c4ccccc4)CC(=O)N3C)s2)c1` (centres unmarked) [Example 48], for which the melting point was determined as 97 °C.

As to `CN1C(=O)CC(c2ccccc2)C1C(O)c1ccc(-c2cccc3ccccc23)s1` (centres unmarked) [Example 45], the melting point was found to be 160 °C.

On to `CN1C(=O)CC(c2ccccc2)C1C(O)c1ccc(-c2c(F)cc(F)cc2F)s1` (centres unmarked) [Example 75], for which the melting point amounted to 95 °C.

In turn, `CN1C(=O)CC(c2ccccc2)C1C(O)c1ccc(-c2cccc(F)c2)s1` (centres unmarked) [Example 46] came in with a melting point of 180 °C.

As for `COc1cccc(C(O)C2C(c3ccccc3)CC(=O)N2C)c1` (centres unmarked) [Example 97], the melting point lay in the range of 160 to 161 °C.

For `COc1ccc(C(O)C2C(c3ccccc3)CC(=O)N2C)cc1` (centres unmarked) [Example 100], the melting point was 154 to 157 °C.

Turning to `COc1ccc2oc(C(O)C3C(c4ccccc4)CC(=O)N3C)cc2c1` (centres unmarked) [Example 113], the melting point lay in the range of 180 to 182 °C.

The compound `CN1C(=O)CC(c2ccccc2)C1C(O)c1ccc(-c2cccc(N)c2)o1` (centres unmarked) [Example 119] displayed a melting point of 98 °C.

Consider `CSc1nccc(-c2ccc(C(O)C3C(c4ccccc4)CC(=O)N3C)s2)n1` (centres unmarked) [Example 77], for which the melting point amounted to 195 °C.

Take `CN1C(=O)CC(c2ccccc2)C1C(O)c1ccc(C(=O)c2ccc(F)cc2)s1` (centres unmarked) [Example 65]: the melting point was 229 to 232 °C (dec.).

In the case of `CN1C(=O)C[C@H](c2ccccc2)[C@@H]1[C@H](F)c1ccc(-c2ccc(F)cc2)s1` [Example 144], the melting point was in the range of 121 to 123 °C.

For `CC(=O)Nc1cccc(-c2cccc(C(O)C3C(c4ccccc4)CC(=O)N3C)c2)c1` (centres unmarked) [Example 102], the melting point was 150 °C.

As for `CN1C(=O)C[C@@H]2c3ccccc3[C@@](O)(c3ccc(-c4ccccc4)s3)[C@@H]21` (relative stereo) [Example 24, (±)-(8S*,3aR*,8aR*)-8-hydroxy-1-methyl-8-(5-phenyl(2-thienyl))indano[2,1-b]pyrrolidin-2-one], the melting point lay within 178 to 180 °C.

Take `Cc1cccc([C@@H](O)[C@H]2[C@@H](c3ccccc3)CC(=O)N2C)c1` (relative stereo) [Example 7, (±)-(4R*,5R*)-5-[(1R*)hydroxy(3-methylphenyl)methyl]-1-methyl-4-phenylpyrrolidin-2-one]: the melting point was in the range of 163 to 165 °C.

For the compound `CN1C(=O)CC(c2ccccc2)C1C(O)c1ccc(Cc2ccc(F)cc2)s1` (centres unmarked) [Example 59], the melting point is 155 to 157 °C.

In turn, `CN1C(=O)C[C@H](c2ccccc2)[C@@H]1[C@H](O)c1ccc(-c2ccc(F)c(Cl)c2)s1` (relative stereo) [Example 5, (±)-(4R*,5R*)-5-{(1S*)[5-(3-chloro-4-fluorophenyl)(2-thienyl)]hydroxymethyl}-1-methyl-4-phenylpyrrolidin-2-one] had a melting point of 194 °C.

`CN1C(=O)CC(c2ccccc2)C1C(O)c1ccc(-c2ccccc2)cc1` (centres unmarked) [Example 93] displayed a melting point of 202 °C.

`CN1C(=O)CC(c2ccccc2)C1C(O)c1cccc(-c2cccc(F)c2)c1` (centres unmarked) [Example 103] returned a melting point of 187 °C.

`Cc1ccc([C@@H](O)[C@H]2[C@@H](c3ccccc3)CC(=O)N2C)s1` (relative stereo) [Example 6, (±)-(4R*,5R*)-5-[(1S*)-hydroxy(5-methyl(2-thienyl))methyl]-1-methyl-4-phenylpyrrolidin-2-one]: the melting point was in the range of 185 to 188 °C.

`COc1ccc(-c2ccc(C(O)C3C(c4ccccc4)CC(=O)N3C)s2)cc1` (centres unmarked) [Example 39] showed a melting point of 168 to 170 °C.

As to `CN1C(=O)C[C@H](c2ccccc2)[C@@H]1[C@H](O)c1ccc(-c2ccc(F)cc2)s1` (relative stereo) [Example 3a, (±)-(4R*,5R*)-5-{(1S*) [5-(4-fluorophenyl)(2-thienyl)]hydroxymethyl}-1-methyl-4-phenylpyrrolidin-2-one], the melting point is 110 °C (dec.).

Consider `COc1ccc(C2CC(=O)N(C)C2C(O)c2ccc(-c3ccccc3)s2)cc1` (centres unmarked) [Example 82], for which the melting point worked out at 215 °C.

As for `CN(C)c1ccc(C(O)C2C(c3ccccc3)CC(=O)N2C)cc1` (centres unmarked) [Example 101], the melting point was 182 to 185 °C.

In turn, `CN1C(=O)CC(c2ccccc2)C1C(O)c1ccc(-c2ccc(F)cc2)o1` (centres unmarked) [Example 114] returned a melting point of 168 °C.

`Cc1ccc(C(O)C2C(c3ccccc3)CC(=O)N2C)cc1` (centres unmarked) [Example 95] showed a melting point of 129 to 131 °C.

`CN1C(=O)C[C@H](c2ccccc2F)[C@@H]1[C@H](O)c1ccc(-c2cccnc2)s1.Cl` [Example 152]: the melting point lay within 180 to 182 °C.

For the compound `CO[C@H](c1cccc(-c2ccccc2)c1)[C@H]1[C@@H](c2ccccc2)CC(=O)N1C` [Example 143], the melting point worked out at 136 °C.
